≈ marks a conversion by molar mass, not a printed value. Like-named read-outs stand apart in the source and are kept apart here.
What was measured:
Assay in all cases: MIC by broth microdilution
[1] = tested on: E. coli; format: cell-based, Escherichia coli; details: isolate pWP701, E. coli, AAC(3)-IV
Method: (§1) MICs of amikacin and gentamicin were determined using the broth microdilution method in cation-adjusted Mueller-Hinton broth, as recommended by the Clinical Laboratory Standard Institute (CLSI) guidelines (8). Amikacin and gentamicin sulfate (Fluorochem, Dertbyshire, UK) were tested over a range of dilutions from 0.25 to 256 μg/ml. A final inoculum of 5.10^5 CFU/ml of each strain was distributed in the 96 wells tray (Sarstedt, Ntimbrecht, Germany). All experiments were repeated in triplicate and E. coli ATCC 25922 was used as quality control. According to the CLSI breakpoints (9), Enterobacteriaceae isolates with gentamicin MICs≤4 and amikacin MICs≤16 mg/L were categorized as susceptible, while those with gentamicin MICs≥16 and amikacin MICs≥64 mg/L were categorized as resistant.
(§2) MICs of amikacin and gentamicin were determined as described above in Example 1.

[2] = tested on: E. cloacae; format: cell-based, Enterobacter cloacae; details: for MIC: Enterobacter cloacae, read-out: MIC
Method: as §1, §2

[3] = tested on: K. pneumoniae; format: cell-based, Klebsiella pneumoniae; details: for MIC: Klebsiella pneumoniae, read-out: MIC
Method: as §1, §2

[4] = tested on: P. rettgeri; format: cell-based, Providencia rettgeri; details: AAC(2′)
Method: as §1, §2

[5] = tested on: P. aeruginosa; format: cell-based, Pseudomonas aeruginosa; details: Pseudomonas aeruginosa, read-out: MIC
Method: as §1, §2

[6] = tested on: A. baumannii; format: cell-based, Acinetobacter baumannii; details: Acinetobacter baumannii
Method: as §1, §2

[7] = tested on: P. stuartii; format: cell-based, Providencia stuartii; details: for MIC: Providencia stuartii, read-out: MIC
Method: as §1, §2

[8] = isolate 1110, E. cloacae, ANT(2″)
[9] = isolate HM, E. cloacae, AG susceptible
[10] = isolate R713, E. cloacae, AG susceptible
[11] = isolate R1433, E. cloacae, AG susceptible
[12] = isolate R2258, E. cloacae, armA
[13] = isolate 13000, K. pneumoniae, APH(3′)-I + AAC(3)-V
[14] = isolate 22233, K. pneumoniae, AAC(3)-V
[15] = isolate N34, K. pneumoniae, rmtC
[16] = isolate R108, K. pneumoniae, armA
[17] = isolate R347, K. pneumoniae, AG susceptible
[18] = isolate R500, K. pneumoniae, armA
[19] = isolate R502, K. pneumoniae, rmtF
[20] = isolate R2160, K. pneumoniae, rmtG
[21] = isolate R2257, K. pneumoniae, armA
[22] = isolate S155, K. pneumoniae, AG susceptible
[23] = isolate BM2667, P. stuartii, APH(3′)-VI + AAC(2′)
[24] = isolate R265, P. stuartii, rmtC

## NCC[C@H](O)C(=O)N[C@@H]1C[C@H](N)[C@@H](O[C@H]2O[C@H](CN)[C@@H](O)[C@H](O)[C@H]2O)[C@H](O)[C@H]1O[C@H]1O[C@H](CO)[C@@H](O)[C@H](N)[C@H]1O [Amikacin]
[1]
  Amikacin Phenotype: S (amikacin MICs≤16 mg/L were categorized as susceptible)
[2]; [8]
  MIC: 1 µg/mL (≈ 1.71 µM)
  Amikacin Phenotype: S (amikacin MICs≤16 mg/L were categorized as susceptible)
[2]; [9]
  MIC: 4 µg/mL (≈ 6.83 µM)
  Amikacin Phenotype: S (amikacin MICs≤16 mg/L were categorized as susceptible)
[2]; [10]
  MIC: 4 µg/mL (≈ 6.83 µM)
  Amikacin Phenotype: S (amikacin MICs≤16 mg/L were categorized as susceptible)
[2]; [11]
  MIC: 4 µg/mL (≈ 6.83 µM)
  Amikacin Phenotype: S (amikacin MICs≤16 mg/L were categorized as susceptible)
[2]; [12]
  MIC: > 256 µg/mL
  Amikacin Phenotype: R (amikacin MICs≥64 mg/L were categorized as resistant)
[2]; strain 1110, E. cloacae, ANT(2″)
  MIC: 1 µg/mL (≈ 1.71 µM)
[2]; strain HM, E. cloacae, susceptible
  MIC: 4 µg/mL (≈ 6.83 µM)
[2]; strain R713, E. cloacae, susceptible
  MIC: 4 µg/mL (≈ 6.83 µM)
[2]; strain R1433, E. cloacae, susceptible
  MIC: 4 µg/mL (≈ 6.83 µM)
[2]; strain R2258, E. cloacae, armA
  MIC: > 512 µg/mL
[3]; isolate 1800, K. pneumoniae, AAC(6′)-I + AAC(3)-I
  MIC: 32 µg/mL
[3]; [13]
  MIC: 0.5 µg/mL
  Amikacin Phenotype: S (amikacin MICs≤16 mg/L were categorized as susceptible)
[3]; [14]
  MIC: 16 µg/mL (≈ 27.3 µM)
  Amikacin Phenotype: S (amikacin MICs≤16 mg/L were categorized as susceptible)
[3]; [15]
  MIC: > 256 µg/mL
  Amikacin Phenotype: R (amikacin MICs≥64 mg/L were categorized as resistant)
[3]; [16]
  MIC: > 256 µg/mL
  Amikacin Phenotype: R (amikacin MICs≥64 mg/L were categorized as resistant)
[3]; [17]
  MIC: 4 µg/mL (≈ 6.83 µM)
  Amikacin Phenotype: S (amikacin MICs≤16 mg/L were categorized as susceptible)
[3]; [18]
  MIC: > 256 µg/mL
  Amikacin Phenotype: R (amikacin MICs≥64 mg/L were categorized as resistant)
[3]; [19]
  MIC: > 256 µg/mL
  Amikacin Phenotype: R (amikacin MICs≥64 mg/L were categorized as resistant)
[3]; [20]
  MIC: > 256 µg/mL
  Amikacin Phenotype: R (amikacin MICs≥64 mg/L were categorized as resistant)
[3]; [21]
  MIC: > 256 µg/mL
  Amikacin Phenotype: R (amikacin MICs≥64 mg/L were categorized as resistant)
[3]; [22]
  MIC: 2 µg/mL (≈ 3.42 µM)
  Amikacin Phenotype: S (amikacin MICs≤16 mg/L were categorized as susceptible)
[3]; strain 1800, K. pneumoniae, AAC(6′)-I + AAC(3)-I
  MIC: 32 µg/mL
[3]; strain 13000, K. pneumoniae, APH(3′)-I + AAC(3)-V
  MIC: 0.5 µg/mL
[3]; strain 22233, K. pneumoniae, AAC(3)-V
  MIC: 16 µg/mL (≈ 27.3 µM)
[3]; strain N34, K. pneumoniae, rmtC
  MIC: > 512 µg/mL
[3]; strain R108, K. pneumoniae, armA
  MIC: > 512 µg/mL
[3]; strain R347, K. pneumoniae, susceptible
  MIC: 4 µg/mL (≈ 6.83 µM)
[3]; strain R500, K. pneumoniae, armA
  MIC: > 512 µg/mL
[3]; strain R502, K. pneumoniae, rmtF
  MIC: > 512 µg/mL
[3]; strain R2160, K. pneumoniae, rmtG
  MIC: > 512 µg/mL
[3]; strain R2257, K. pneumoniae, armA
  MIC: > 512 µg/mL
[3]; strain S155, K. pneumoniae, susceptible
  MIC: 2 µg/mL (≈ 3.42 µM)
[4]; Providencia rettgeri, isolate 531, P. rettgeri, read-out: MIC
  MIC: 16 µg/mL (≈ 27.3 µM)
[4]; isolate 531, P. rettgeri
  Amikacin Phenotype: S (amikacin MICs≤16 mg/L were categorized as susceptible)
[4]; strain 531, P. rettgeri
  MIC: 16 µg/mL (≈ 27.3 µM)
[5]; strain 3655, P. aeruginosa, APH(3′)-I + ANT(2″)
  MIC: 1 µg/mL
[5]; strain 3658, P. aeruginosa, APH(3′)-I + ANT(4′)-II
  MIC: > 128 µg/mL
[5]; strain 28233, P. aeruginosa, APH(3′)-I + AAC(3)-I
  MIC: 4 µg/mL
[5]; strain R191, P. aeruginosa, susceptible
  MIC: 8 µg/mL (≈ 13.7 µM)
[6]
  MIC: 128 µg/mL (≈ 219 µM)
[6]; strain 4996, A. baumannii, AAC(6′)-I, read-out: MIC
  MIC: 64 µg/mL (≈ 109 µM)
[6]; strain BM2580, A. baumannii, APH(3′)-VI, read-out: MIC
  MIC: 64 µg/mL (≈ 109 µM)
[6]; strain R264, A. baumannii, armA, read-out: MIC
  MIC: > 512 µg/mL
[6]; strain R1395, A. baumannii, susceptible, read-out: MIC
  MIC: 2 µg/mL (≈ 3.42 µM)
[7]; [23]
  MIC: 64 µg/mL
  Amikacin Phenotype: R (amikacin MICs≥64 mg/L were categorized as resistant)
[7]; isolate R38, P. stuartii, rmtC
  MIC: > 256 µg/mL
  Amikacin Phenotype: R (amikacin MICs≥64 mg/L were categorized as resistant)
[7]; [24]
  MIC: > 256 µg/mL
  Amikacin Phenotype: R (amikacin MICs≥64 mg/L were categorized as resistant)
[7]; strain BM2667, P. stuartii, APH(3′)-VI + AAC(2′)
  MIC: 64 µg/mL
[7]; strain R38, P. stuartii, rmtC
  MIC: > 512 µg/mL
[7]; strain R265, P. stuartii, rmtC
  MIC: > 512 µg/mL

— patent publication US20190249218A1, “Method, Medium and Kit for Detecting Multiple Aminoglycoside Resistance Including 16S rRNA Methylase Mediated Resistance in Gram-Negative Bacteria” (priority 2016, published 2019)
